Measured values published in US20240423204A1, “METHOD AND USE OF AN ENANTIOMER OF 3,4-DIHYDROXYPHENYLALANINE (DOPA) FOR ENHANCING PLANT ATTRACTIVENESS TO BENEFICIAL INSECTS” (BIOBAB R&D, S.L., priority 2021, published 2024).

Assays:
bean plants (Vicia faba) [1] = assay: VOC induction assay on bean plants (Vicia faba) in hydroponic medium; assay type: in vivo; conditions: 10 μg
Method: Broad beans (Vicia faba cv Histal) were potted in sterile vermiculite and kept in a glasshouse at 23° C. After 7 days, the seedlings were gently removed from the vermiculite, the cotyledons peeled and the roots rinsed with bidistilled water, carefully brushing away all soil particles. They were then placed in glass beakers containing a hydroponic solution made with Hoagland's modified basalt salt mixture, (MP, USA), and maintained in an environmental chamber at 23° C. Each beaker, containing three seedlings, was wrapped in aluminum foil to hold the plants in position and to prevent the light from reaching the roots. Every 4 days, the hydroponic solution in each beaker was renewed. After 10 days plants were treated with L-DOPA (10 μg), D-DOPA (10 μg) or HPLC water (control, 10 μl) dissolved in 30 mL of distilled water.
(§1) The bean plants were enclosed in a glass vessel with a volume of 3.2 I. The bottom of the vessel was enclosed around the top of the pot. Air that had been purified by passage through an activated charcoal filter (BDH, 10-14 mesh) was pushed into (750 ml·min^−1) and pulled (700 ml·min^−1) out of the vessel. VOCs were trapped onto Porapack™ (Porous Polymer Adsorbent) 50/80 mesh (50 mg; Supelco, Bellefonte, USA) held in glass tubing (5 mm outer diameter) by two plugs of silanised glass wool. The Porapack™ tube was conditioned by washing with redistilled diethyl ether (2 ml) and heating at 130° C. for 4 h under a stream of purified nitrogen.
(§2) VOCs collected on the Porapak™ were eluted with 750 μL of redistilled diethyl ether and the samples were stored at −20° C. until analysis.
(§3) For the analysis, four samples (1 μL) from each treatment (L-DOPA, D-DOPA and Control) were analyzed on an Agilent 7820A Gas Chromatograph (Agilent Technologies, Santa Clara, California, USA), equipped with a cool column injector, flame ionization detector (FID), and a HP-1 capillary GC column (50 m×0.32 mm internal diameter×0.52 μm film thickness). Hydrogen was the carrier gas. The oven temperature was maintained at 30° C. for 0.1 min, then programmed to increase at 10° C.·min^−1 until 250° C., and then held for 38 min. Tentative identifications were made by Kovats' Index values and GC peak enhancement on GC columns of HP-1, using authentic samples of chemicals compounds.

[2] = system: bean plants (Phaseolus vulgaris); assay: VOC induction assay on bean plants (Phaseolus vulgaris) in soil; assay type: in vivo; conditions: 10 μg in 30 mL, 24 h, cis-3-hexenyl acetate and ocimene
Method: Bean (Phaseolus vulgaris cv CGB0002) plants were grown in sterile soil for 5 days, and treated with L-DOPA (10 μg), D-DOPA (10 μg) or HPLC water (control, 10 μl) dissolved in 30 mL of distilled water.
(§4) After 24 h, the volatile organic compounds (VOCs) emitted from the plant were collected through a dynamic headspace.
as §1, with “nitrogen. […]” for “nitrogen.”
(§5) For the analysis, four samples (1 μL) from each treatment (L-DOPA, D-DOPA and Control) were analyzed on an Agilent 7820A Gas Chromatograph (Agilent Technologies, Santa Clara, California, USA), equipped with a cool column injector, flame ionization detector (FID), and a HP-1 capillary GC column (50 m×0.32 mm internal diameter×0.52 μm film thickness). […]

Aphidius ervi = assay: Behavioral assay in two-way olfactometer, bean plants (Vicia faba) treated by soil application; assay type: in vivo; conditions: 10 min, Vicia faba 3-4 weeks, versus clean plant
Method: Broad bean seeds (Vicia faba cv Aguadulce supersimonia) were planted individually in plastic pots (6×6×9 cm) filled with Traysubstrat topsoil (Klasmann-Deilmann GmbH) or a mixture of agriperlite, vermiculite, and sand (1:1:1) and grown in an environmental chamber (24±2° C., 45±10% RH, 14 h: 8 h L: D).
For this example, bean plants of 3-4 weeks were used. Plants were treated by soil application of the two isomers of DOPA: 3,4-dihydroxy-L-phenylalanine (Alfa Aesar, CAS Number 59-92-7) and 3,4-dihydroxy-D-phenylalanine (Sigma Aldrich, CAS Number 5796-17-8).
Untreated plants were also used as control.
The attractiveness of beneficial insects, specifically Aphidius ervi, towards a bean plants treated with the isomers of DOPA compared to clean bean plant (control) was evaluated in an olfactometer.
The behavioral response of A. ervi were evaluated over 10 min in a two-way olfactometer. Only active insects, i.e. insects that spent at least 60 s in the treatment (trt) and/or control (cnt) arm of the olfactometer were taken into account.
The results obtained in this example are expressed as a percentage of residence time in each olfactometer arm where the parasitoid remained, relative to the total time spent in the two arms. Paired t-tests were conducted using R (free software environment for statistical computing and graphics).

many plants = conditions: allelochemical effect, Nishihara et al (2004); cited from earlier work
[3] = system: bean plants (Phaseolus vulgaris); assay: VOC induction assay on bean plants (Phaseolus vulgaris) in hydroponic medium; assay type: in vivo; conditions: 10 μg, 24 h
Method: Beans (Phaseolus vulgaris cv CGB0002) were sown in sterile vermiculite and kept in a glasshouse at 27° C. After 17 days, the seedlings were gently removed from the vermiculite. They were then placed in glass beakers containing 150 mL of hydroponic solution made with Hoagland's modified basalt salt mixture, (MP, USA), and maintained in an environmental chamber at 27° C. Each beaker, containing one seedling, was wrapped in aluminum foil to hold the plants in position and to prevent the light from reaching the roots. After 2 days plants were treated with L-DOPA (10 μg), D-DOPA (10 μg) or HPLC water (control, 10 μl).
as §4, §1, §2, §3

bean plants (Vicia faba) [4] = assay: VOC induction assay on bean plants (Vicia faba) in soil/vermiculite; assay type: in vivo; conditions: 10 μg in 30 mL, 24 h, 6-methyl-5-hepten-2one, cis-3-hexen-1-ol, cis-3-hexenyl acetate, ocimene
Method: (§6) Broad beans (Vicia faba cv Histal) plants were grown in a mixture of sterile soil/vermiculite (7:3) for 10 days, and treated with L-DOPA (10 μg), D-DOPA (10 μg) or HPLC water (control, 10 μl) dissolved in 30 mL of distilled water.
as §4
as §1, with “nitrogen. […]” for “nitrogen.”
as §5

[5] = system: bean plant (Vicia faba) leaves; assay: Estimation of total phenolic content in bean plant (Vicia faba) leaves, Folin-Ciocalteu assay; assay type: in vivo; conditions: soil/vermiculite, 10 μg in 30 mL, 24 h
Method: The estimation of total phenolic content in bean plant leaves (Vicia faba) was based on the procedure developed by Ainsworth, E.A. et al. (2007) using Folin-Ciocalteu (F-C) reagent. F-C assay is commonly been used to assay total phenolic content. The F-C assay provides a convenient, rapid, and simple estimation of the content of total phenolics, and other oxidation substrates in plant extracts.
as §6, with “bean” for “beans”, “water. After 24 h harvest leaves material (approximately 20 mg) in screw-capped tubes and freeze immediately in liquid nitrogen.” for “water.”
To homogenize the tissue, three tungsten carbide beads and 2 ml of ice-cold 95% (vol/vol) methanol were added in each sample tube and insert samples into pre-cooled Teflon adaptors. Tissue was homogenized for 5 min at 30 Hz. […]
Finally, a […] sample, standard or blank from the assay tube were transferred to a clear 96-well micro-plate and the absorbance of each was measured at 750 nm using a spectrophotometer.
For calculate the total phenolic content, first a standard curve from the blank-corrected A750 of the gallic acid standards was calculated. […]

[6] = system: wheat plants (Triticum monococcum); assay: VOC induction assay on wheat plants (Triticum monococcum) in soil; assay type: in vivo; conditions: 10 μg in 30 mL, 24 h
Method: Wheat (Triticum monococcum VAR Tocayo) plants were grown in sterile soil for 15 days (20 seeds per pot), and treated with L-DOPA (10 μg), D-DOPA (10 μg) or HPLC water (control, 10 μl) dissolved in 30 mL of distilled water.
as §4
as §1, with “wheat” for “bean”, “nitrogen. […]” for “nitrogen.”
as §5

| SMILES | concentration of 6-methyl-5-hepten-2one versus control (bean plants (Vicia faba) [1]) | concentration of cis-3-hexenyl acetate versus control (bean plants (Vicia faba) [1]) | concentration of ocimene versus control (bean plants (Vicia faba) [1]) | concentration of VOCs (FID response) versus control [2] | residence time of A. ervi females on treated bean plants, higher than for untreated plants (Aphidius ervi) | growth of plants (especially radicle and hypocotyl) (many plants) | concentration of 6-methyl-5-hepten-2one versus control [3] | concentration of cis-3-hexen-1-ol versus control [3] | concentration of cis-3-hexenyl acetate versus control [3] | concentration of ocimene versus control [3] | concentration of VOCs (FID response) emitted by the plant versus control (bean plants (Vicia faba) [4]) | total phenolic content versus untreated plants (control) [5] | concentration of ocimene versus control [6] |
| --- | --- | --- | --- | --- | --- | --- | --- | --- | --- | --- | --- | --- | --- |
| N[C@@H](Cc1ccc(O)c(O)c1)C(=O)O [L-DOPA, L-3,4-dihydroxyphenylalanine] | A change is observed | A change is observed | A change is observed | A change is observed | approx. +20% | reduced the growth | A change is observed | A change is observed | A change is observed | A change is observed | A change is observed | higher | A change is observed |
| N[C@H](Cc1ccc(O)c(O)c1)C(=O)O [D-DOPA, D-3,4-dihydroxyphenylalanine] | A change is observed | A change is observed | A change is observed | – | approx. +20% | – | – | A change is observed | – | A change is observed | A change is observed | higher | – |
